The text below walks through data of patent publication US10966962B2, “Method for treating neurodegenerative diseases” (THE BOARD OF TRUSTEES OF THE LELAND STANFORD JUNIOR …, priority 2014, dated 2021).

Data set [1] concerns brains of STZ-treated-animals. Put plainly: Gene expression in brain in acute STZ model of AD. To be noted: 25 mg/kg orally daily until Day 4. The class given is in vivo, mice. On the procedure: To induce symptoms of AD, STZ (3 mg/kg, Sigma) was administered via intracerebral injection ([…] et al, Int J Neurosci, PMID 24494726, 2014). This is a well-established model of the sporadic form of AD. Briefly, animals were anesthetized and STZ solution in 5 μl artificial cerebrospinal fluid (Harvard Apparatus) was injected through the skull with a 50 μl syringe. Control animals received a similar volume of artificial cerebrospinal fluid without STZ. The injections were performed twice, on Day 1 and Day 3. […] Treatment with ZLN005 was continued on a daily schedule until Day 4.

A further data set deals with microglia. The experiment in a line: Microglia metabolic phenotype in 5XFAD AD transgenic animals (MitotrackerGreen, 2-NBDG). It is filed as in vivo, mice. To be noted: 25 mg/kg orally 3 times a week for 4 weeks, 7 weeks of age. On the procedure: AD transgenic animals were orally treated 3 times a week for 4 weeks with 0.5% methylcellulose or ZLN005 (Sigma) at 25 mg/kg in 0.5% methylcellulose, starting at 3 weeks of age. For studies of microglia, 5[…]=10) and 5XFAD-Ctrl (n=8) animals and WT animals (n=11) were sacrificed at 7 weeks of age. PBS-perfused brain tissues of sacrificed animals were digested with Collagenase IV and processed for flow cytometry. Brain microglia were phenotyped with 2-NBDG and MitotrackerGreen (Invitrogen) for flow cytometric acquisition (LSRII, BD) and analysis (FlowJo). The results are summarized in FIG. 13; Y-axis represents % of microglia that highly expressed MitotrackerGreen (A) and had taken up 2-NBDG (B). Mitochondrial respiration and glycolysis are two key energy generating pathways in living cells. In immune cells like microglia, inflammatory transformation is associated with upregulation of glucose utilization and depression of mitochondrial biogenesis and function. […] ANOVA was used for statistical analyses.

Data set [2] relates to Ppargc1a pathway in the brain. On the procedure:
To induce symptoms of PD, MPTP (20 mg/kg) was administered intraperitoneally in sterile PBS 4 times at 2-hour intervals on day 1. […] Log-rank test was used for statistical analysis.
Ppargc1a, an inducer of mitochondrial biogenesis, is widely expressed in cells throughout the body.
For gene expression studies, animals were sacrificed on Day 4, 24 hours after the 3rd oral dosage of ZLN005, and PBS-perfused brain tissues were processed for RNA isolation, cDNA synthesis, and real-time quantitative PCR (Invitrogen). […] Unpaired t-tests were used for statistical analyses.

The test system of data set [3] is dopaminergic neurons in the substantia nigra. The experiment in a line: Immunohistochemical analysis of dopaminergic neurons in MPTP-treated animals. The class given is in vivo, mice. The following applies: 25 mg/kg orally once a day for 7 days, Day 8. On the procedure:
For protein expression studies, animals were sacrificed on Day 8, 24 hours after the 7th oral dosage of ZLN005, and paraformaldehyde-perfused brain tissues were processed for immunohistochemical analysis of dopaminergic neurons in the substantia nigra. The brown staining represents tyrosine hydroxylase expression in dopaminergic neurons of the substantia nigra.

The next data set relates to STZ-treated mice. Put plainly: Disease severity in acute STZ model of AD. It is filed as in vivo. The following applies: STZ-ZLN mice. On the procedure:
To induce symptoms of AD, STZ (3 mg/kg, Sigma) was administered via intracerebral injection ([…] et al, Int J Neurosci, PMID 24494726, 2014). This is a well-established model of the sporadic form of AD. Briefly, animals were anesthetized and STZ solution in 5 μl artificial cerebrospinal fluid (Harvard Apparatus) was injected through the skull with a 50 μl syringe. Control animals received a similar volume of artificial cerebrospinal fluid without STZ. The injections were performed twice, on Day 1 and Day 3. […] Treatment with ZLN005 continued on a daily schedule until Day 4, when the animals were evaluated. […] In contrast, in STZ-Ctrl mice, only 10% were active, 70% were lethargic, and 20% of these animals had hind limb paralysis. […] The inventors designed a disease scoring system based on evidence of tissue inflammation: with scores of 1 (mild inflammation, increased vascularization/bleeding of internal organs), 2 (moderate inflammation, severe vascularization/bleeding of internal organs), and 3 (severe inflammation, intestinal or stomach swelling). […] The disease score presented in the example is the total score of the two scoring systems. […] Unpaired t-test was used for statistical analysis.

Data set [4] deals with brain perivascular macrophages. The experiment in a line: Brain perivascular macrophage iNOS, IL6, TNFα in ALS transgenic animals. The class given is in vivo, mice. The following applies: 25 mg/kg orally 3 times a week for 8 weeks, 13 weeks of age. The procedure: ALS transgenic animals were purchased from Jackson Laboratories. These animals express the G93A mutation in the gene SOD1 which has been implicated as the cause of the disease in a subset of human subjects with familial ALS. […] These animals represent a gold standard model for therapeutic discovery in the field of ALS research. ALS transgenic animals were orally treated 3 times a week for 8 weeks with 0.5% methylcellulose or ZLN005 (Sigma) at 25 mg/kg in 0.5% methylcellulose, starting at 5 weeks of age. For study of brain perivascular macrophages, ALS-Ctrl (n=8), ALS-ZLN (n=12), and WT animals (n=12) were sacrificed at 13 weeks of age. PBS-perfused brain tissues of sacrificed animals were digested with Collagenase IV and processed for flow cytometry. Brain perivascular macrophages were phenotyped with antibodies directed against mouse iNOS, IL6, and TNFα (Biolegend) for flow cytometric acquisition (LSRII, BD) and analysis (FlowJo). The results are summarized in FIG. 16; Y-axis represents % of brain perivascular macrophages that express iNOS (A), IL6 (B) and TNFα (C). […] ANOVA was used for statistical analyses.

The test system of a further data set is HD transgenic mice. The experiment in a line: Wheel-running test in HD transgenic animals (R6/2). It is filed as in vivo. The following applies: HD transgenic (R6/2); 25 mg/kg orally 3 times a week for 4 weeks from 6 weeks of age; constant speed 5 rpm. The procedure:
The wheel-running test in this example was performed similarly to that described in Example 8. HD transgenic animals (R6/2) were purchased from Jackson Laboratories. […] HD transgenic mice were orally treated 3 times a week for 4 weeks with either 0.5% methylcellulose (n=8) or ZLN005 (Sigma) at 25 mg/kg in 0.5% methylcellulose (n=7), starting at 6 weeks of age. Subsequently, at 10 weeks of age, these mice were subjected to 2 weeks of training on a treadmill at a constant speed of 5 rpm (rotations per minute). After the training, mice were tested for motor performance at a constant speed of 5 rpm. […] Unpaired t-test was used for statistical analysis.

Turning to `CC(C)(C)c1ccc(-c2nc3ccccc3[nH]2)cc1` [ZLN005, 2-(4-tert-butylphenyl)-1H-benzimidazole], in data set [1], the “expression of genes involved in Ppargc1a signaling and antioxidant defense (Tfam, Cytc) in the brain” value is recorded as “increased expression”; the “expression of genes involved in β-amyloid generation (App and Psen1) in the brain” value is “decreased the expression”. Besides, in the data set on microglia, the “glucose uptake in microglia (2-NBDG)” value is “decreased” and the “mitochondrial mass in microglia (Mitotracker Green)” value is on record as “enhanced”. In addition, the “expression of genes involved in Ppargc1a signaling (Pgc1a), mitochondrial genes (Tfam, Nrf2, Ucp3) and anti-oxidative stress genes (Ant, Sod1, Sod2) in the brain” value in data set [2] (MPTP-treated animals, 25 mg/kg orally once a day for 3 days, Day 4) is reported as “increases expression of genes”. Also, the “upregulation of tyrosine hydroxylase (Th)” value in data set [2] (brain of MPTP-treated animals, 25 mg/kg orally once a day for 3 days, Day 4) is reported as 15%. The blood-brain barrier penetration entry in data set [2] (mouse, in vivo, po, 25 mg/kg) is “penetrated the blood-brain barrier”. Besides, the “depletion of dopaminergic neurons of the substantia nigra (tyrosine hydroxylase staining)” value in data set [3] is recorded as “reversed”. Also, in the data set on STZ-treated mice (25 mg/kg orally daily, Day 4), the animals active was found to be 33%, the animals paralyzed entry is “none” and the “animals showing evidence of lethargy” value was determined as 66%. In addition, the mean disease score in the data set on STZ-treated mice (day 4, total of inflammation and physical activity scores) amounted to 1.6. Further, in data set [4], the “IL6 production in brain perivascular macrophages” value was “suppressed, although these differences did not reach statistical significance”; the “TNFα production in brain perivascular macrophages” value was “suppressed, although these differences did not reach statistical significance”; the “iNOS production in brain perivascular macrophages” value was “decreased”. In addition, the latency to fall in the data set on HD transgenic mice was 110 s.
